Values of other authors in patent US20130338126A1, “Ophthalmic Suspension for Ocular Use” (Allergan, Inc., priority 2008, published 2013).

Columns and labels:
[1] = tested on: Corynebacterium propinquum, Staphylococcus aureus, Staphylococcus epidermidis, Streptococcus mitis, Streptococcus pneumoniae, Haemophilus influenzae; settings: both in vitro and clinically, in conjunctival infections
[2] = tested on: methicillin resistant Staphylococcus aureus, and Staphylococcus epidermidis; settings: in vitro, gram-positive microorganisms
[3] = tested on: Streptococcus epidermidis
[4] = tested on: gram-negative microorganisms; settings: many gram-negative microorganisms
[5] = tested on: Haemophylus influenzae clinical isolated cases; settings: clinical isolates
bacteria = settings: in vitro
[6] = tested on: Staphylococcus aureus and Staphylococcus epidermidis
[7] = tested on: topoisomerase II or gyrase mutations
[8] = ophthalmic solution 0.3% or 0.5% w/v, 2 drops up to 8 times a day; below inferior limit of quantification, all individuals
[9] = topical; p<0.005
bacterial conjunctivitis [10] = settings: 0.3% ophthalmic solution, treated five days
bacterial conjunctivitis [11] = settings: day 6 of treatment
[12] = tested on: bacterial flora in the eye
[13] = tested on: 379 isolated microorganisms; settings: first day of treatment
[14] = tested on: Streptococcus pneumoniae isolates; settings: all study visits
[15] = tested on: gram-negative bacteria, including all Haemophilus influenzae isolates; settings: all study visits
[16] = human, in vivo

COc1c(N2CCNC(C)C2)c(F)cc2c(=O)c(C(=O)O)cn(C3CC3)c12 (centres unmarked) [gatifloxacin]
activity against most strains [1]: shown to be active
potency compared with ciprofloxacin, ofloxacin, levofloxacin and moxifloxacin [2]: more powerful than other quinolones
effectiveness relative to ofloxacin [3]: eight times more effective
activity compared to ofloxacin [4]: increased activity compared to ofloxacin
effectiveness relative to ofloxacin [5]: two times more effective
effectiveness relative to ciprofloxacin (mycobacterium): four times more effective/active
action when combined with amicacin and claritromicin (Mycobacterium chelonae): synergistic action
effectiveness relative to ciprofloxacin (Mycobacterium chelonae; p<0.001): more effective than ciprofloxacin
bacterial resistance (bacteria): low
bacterial resistance rates [6]: lower for gatifloxacin than for ciprofloxacin or norfloxacin
effect of mutations, compared to ofloxacin, ciprofloxacin, sparfloxacin and trovafloxacin [7]: less affected
cross-resistance with aminoglycosides, macrolides and tetracycline antibiotics (pathogenic agents): No cross-resistance has been observed
cross-resistance with some other fluoroquinolones (pathogenic agents; systemic gatifloxacin): Cross-resistance has been observed
plasma levels [8]: < 5 ng/mL
penetration in the eye structures compared to ciprofloxacin [9]: better penetration in the tissue
killing rate of etiological agents (bacterial conjunctivitis [10]): 92%
clinical cure rate (bacterial conjunctivitis [10]; culture-confirmed bacterial conjunctivitis): 77%
rates of microbiological cure (bacterial conjunctivitis [11]): 83.3%
action against gram-positive cocci versus ciprofloxacin (bacterial keratitis; p<0.001): significantly superior
rate of complete ulcer healing versus ciprofloxacin (bacterial keratitis; patients with keratitis): significantly higher rate of complete ulcer healing
rate of bacterial reduction in the conjunctiva ([12]; gatifloxacin 0.3% / levofloxacin 0.5% ophthalmic solutions, one week pre-operative): 74.3%
post-operative infection (endophthalmitis) ([12]; one week pre-operative treatment, cataract surgery): None of the individuals treated develop a post-operative infection
sensitiveness of isolates [13]: 95.8%
sensitivity of isolates [14]: All Streptococcus pneumoniae isolates were sensitive
sensitivity of isolates [15]: All gram-negative bacteria were also sensitive
adverse events: frequency, type, intensity or relation to causes versus ofloxacin or placebo [16]: no statistically significant differences
